According to patent US10414775B2 (Merck Sharp & Dohme Corp., priority 2016, dated 2019):

These molecules were tested against T1, Human CYP8B1 (Homo sapiens, UniProt Q9UNU6) (assay: Human Cyp8B1 Liver Microsome Assay). Conditions: human liver microsomes; substrate 7α-hydroxy-4-cholesten-3-one, NADPH; 30 min pre-incubation, 45 min reaction; RapidFire MS readout.
T1 construct: tissue Xenotech; host or cells: human liver microsomes
T1 sequence (Q9UNU6 1-501): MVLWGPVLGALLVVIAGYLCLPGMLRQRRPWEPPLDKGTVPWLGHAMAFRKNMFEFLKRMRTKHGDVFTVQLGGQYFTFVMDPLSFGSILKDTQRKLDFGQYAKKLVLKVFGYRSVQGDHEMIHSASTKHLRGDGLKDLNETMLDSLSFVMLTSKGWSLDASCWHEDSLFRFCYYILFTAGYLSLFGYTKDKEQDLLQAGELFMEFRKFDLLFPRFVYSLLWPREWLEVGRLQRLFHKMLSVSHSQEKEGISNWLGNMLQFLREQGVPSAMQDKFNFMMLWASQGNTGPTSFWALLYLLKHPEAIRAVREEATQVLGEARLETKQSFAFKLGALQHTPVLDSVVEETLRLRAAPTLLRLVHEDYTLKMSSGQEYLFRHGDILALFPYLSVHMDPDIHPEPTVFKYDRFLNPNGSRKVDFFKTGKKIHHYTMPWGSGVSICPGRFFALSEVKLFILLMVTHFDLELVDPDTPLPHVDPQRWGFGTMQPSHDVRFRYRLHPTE
Assay type: biochemical
Procedure: Human Cyp8B1 Liver Microsome Assay To a 384 well polypropylene plate (Corning 3656), 250 nl of inhibitor in 100% DMSO (1.25% final DMSO concentration) was pre-plated using an Echo liquid handler (Labcyte Inc.). Human liver microsomes (Xenotech) were diluted in of 0.1 M phosphate buffer, pH 7.4, at a concentration of 65 μg/ml and 15 μL was added to the 384 well plate. The plates were incubated at ambient room temperature for 30 minutes. After pre-incubation with inhibitor, the reaction was initiated by adding 5 μl of substrate solution (4.0 μM 7α-hydroxy-4-cholesten-3-one(Toronto Research Chemicals), 2 mM of NADPH (Sigma), 0.1 M phosphate buffer (pH 7.4). The reaction was carried out for 45 minutes at ambient room temperature and was quenched by the addition of 50 μl of acetonitrile+0.1% vol/vol formic acid (FA)+300 nM 7α-hydroxy-4-cholesten-3-one-d7 (Toronto Research Chemicals). The plates were sealed and centrifuged at 3000 rpm for 5 minutes. Plates were loaded onto the Agilent RapidFire RF300 HTMS system, wherein samples were sipped for 600 ms, and the sip sensor detection signals the diversion of sample from the loop onto a C4 solid phase extraction (SPE) cartridge, where salts are washed off for 2500 ms with a mobile phase of water with 0.1% vol/vol FA at a flow rate of 1.5 ml/min. The column path is switched, and the sample is eluted off the cartridge and flowed into the mass spectrometer for 3000 ms with a mobile phase of acetonitrile and 0.1% vol/vol FA at a flow rate of 1.25 ml/min. The aspirator tip was washed separately with water and acetonitrile between sample aspirations (each for 600 ms) to minimize carryover contamination. Mass spectrometry was carried out using a Sciex API4000 triple quadrupole mass spectrometer (Applied Biosystems, Concord, ON, Canada) equipped with electrospray ionization (ESI) operated in the positive-ion mode. The product 7α, 12α-dihydroxy-4-cholesten-3-one and internal standard 7α-hydroxy-4-cholsten-3-one-d7 were detected using multiple reaction monitoring (MRM) with Q1/Q3 transitions at m/z 417.3 to 381.3 and m/z 408.3 to 390.3, respectively, with a dwell time of 100 ms and a collision energy of 24 V for each transition. The mass spectrometer used an ESI voltage of 5000 V and a source temperature of 650° C. Extracted ion chromatograms for each transition were integrated and processed using the RapidFire Integrator software. The data for each well were normalized by monitoring product conversion with the ratio of AUCproduct/(AUCinternal standard). The data was then fitted to a four parameter logistic fit using ActivityBase Software to calculate an IC50 of the inhibitor.

SMILES	IC50
C[C@@H]1CN(c2ccnc3nc(C(F)(F)F)ccc23)CC[C@@H]1C(=O)N1CCn2c(nnc2C(F)(F)F)C1 [Example 31, {(3S,4S)-3-methyl-1-[7-(trifluoromethyl)-1,8-naphthyridin-4-yl]piperidin-4-yl}[3-(trifluoromethyl)-5,6-dihydro[1,2,4]tria-zolo[4,3-a]pyrazin-7(8H)-yl]methanone]	2700 nM
C[C@@H]1CN(c2ccnc3c(Cl)c(Cl)ccc23)CC[C@@H]1C(=O)N1CCn2c(nnc2C(F)(F)F)C1 [Example 32, ((3S,4S)-1-(7,8-dichloroquinolin-4-yl)-3-methylpiperidin-4-yl)(3-(trifluoromethyl)-5,6-dihydro-[1,2,4]triazolo[4,3-a]pyrazin-7(8H)-yl)methanone]	111 nM
C[C@@H]1CN(c2ccnc3cc(OC(F)F)ccc23)CC[C@@H]1C(=O)N1CCn2c(nnc2C(F)(F)F)C1 [Example 33, {(3S,4S)-1-[7-(difluoromethoxy)quinolin-4-yl]-3-methylpiperidin-4-yl}[3-(trifluoromethyl)-5,6-dihydro[1,2,4]triazolo[4,3-a]pyrazin-7(8H)-yl]methanone]	8.3 nM
COc1ccc2c(N3CC[C@H](C(=O)N4CCn5c(nnc5C(F)(F)F)C4)[C@H](C)C3)c(C3CC3)cnc2c1 [Example 34, [(3S,4S)-1-(3-cyclopropyl-7-methoxyquinolin-4-yl)-3-methylpiperidin-4-yl][3-(trifluoromethyl)-5,6-dihydro[1,2,4]triazolo[4,3-a]pyrazin-7(8H)-yl]methanone]	0.67 nM
Cc1cnc2cc(C(F)(F)F)ccc2c1N1CC[C@H](C(=O)N2CCn3c(nnc3C(F)(F)F)C2)[C@H](C)C1 [Example 35, {(3S,4S)-3-methyl-1-[3-methyl-7-(trifluoromethyl)quinolin-4-yl]piperidin-4-yl}[3-(trifluoromethyl)-5,6-dihydro[1,2,4]triazolo[4,3-a]pyrazin-7(8H)-yl]methanone]	0.17 nM
C[C@@H]1CN(c2c(Cl)cnc3cc(OC(F)(F)F)ccc23)CC[C@@H]1C(=O)N1CCn2c(nnc2C(F)(F)F)C1 [Example 36, {(3S,4S)-1-[3-chloro-7-(trifluoromethoxy)quinolin-4-yl]-3-methylpiperidin-4-yl}[3-(trifluoromethyl)-5,6-dihydro[1,2,4]triazolo[4,3-a]pyrazin-7(8H)-yl]methanone]	0.35 nM
C[C@@H]1CN(c2c(Cl)cnc3nc(C(F)(F)F)ccc23)CC[C@@H]1C(=O)N1CCn2c(nnc2C(F)(F)F)C1 [Example 37, {(3S,4S)-1-[3-chloro-7-(trifluoromethyl)-1,8-naphthyridin-4-yl]-3-methylpiperidin-4-yl}[3-(trifluoromethyl)-5,6-dihydro[1,2,4]triazolo[4,3-a]pyrazin-7(8H)-yl]methanone]	1.3 nM
C[C@@H]1CN(c2ccnc3cc(O)ccc23)CC[C@@H]1C(=O)N1CCn2c(nnc2C(F)(F)F)C1 [Example 38, [(3S,4S)-1-(7-hydroxyquinolin-4-yl)-3-methylpiperidin-4-yl][3-(trifluoromethyl)-5,6-dihydro[1,2,4]triazolo[4,3-a]pyrazin-7(8H)-yl]methanone]	2890 nM
C[C@@H]1CN(c2c(C(N)=O)cnc3cc(OCC4CC4)ccc23)CC[C@@H]1C(=O)N1CCn2c(nnc2C(F)(F)F)C1 [Example 39, 7-(cyclopropylmethoxy)-4-[(3S,4S)-3-methyl-4-{[3-(trifluoromethyl)-5,6-dihydro[1,2,4]triazolo[4,3-a]pyrazin-7(8H)-yl]carbonyl}piperidin-1-yl]quinoline-3-carboxamide]	5.29 nM
C[C@@H]1CN(c2c(Cl)c[n+]([O-])c3cc(C(F)(F)F)ccc23)CC[C@@H]1C(=O)N1CCn2c(nnc2C(F)(F)F)C1 [Example 40, {(3S,4S)-1-[3-chloro-1-oxido-7-(trifluoromethyl)quinolin-4-yl]-3-methylpiperidin-4-yl}[3-(trifluoromethyl)-5,6-dihydro[1,2,4]triazolo[4,3-a]pyrazin-7(8H)-yl]methanone]	0.8 nM
COc1ccc2c(N3CC[C@H](C(=O)N4CCn5c(nnc5C(F)(F)F)C4)[C@H](C)C3)c(Cl)cnc2c1F [Example 41, [(3S,4S)-1-(3-chloro-8-fluoro-7-methoxyquinolin-4-yl)-3-methylpiperidin-4-yl][3-(trifluoromethyl)-5,6-dihydro[1,2,4]triazolo[4,3-a]pyrazin-7(8H)-yl]methanone]	0.38 nM
C[C@@H]1CN(c2c(Cl)cnc3cc(Br)ccc23)CC[C@@H]1C(=O)N1CCn2c(nnc2C(F)(F)F)C1 [Example 42, [(3S,4S)-1-(7-bromo-3-chloroquinolin-4-yl)-3-methylpiperidin-4-yl][3-(trifluoromethyl)-5,6-dihydro[1,2,4]triazolo[4,3-a]pyrazin-7(81)-yl]methanone]	0.44 nM
CC(=O)c1ccc2c(N3CC[C@H](C(=O)N4CCn5c(nnc5C(F)(F)F)C4)[C@H](C)C3)c(Cl)cnc2c1 [Example 43, 1-{3-chloro-4-[(3S,4S)-3-methyl-4-{[3-(trifluoromethyl)-5,6-dihydro[1,2,4]triazolo[4,3-a]pyrazin-7(8H)-yl]carbonyl}piperidin-1-yl]quinolin-7-yl}ethanone]	0.28 nM
C[C@@H]1CN(c2c(F)cnc3cc(C(F)(F)F)ccc23)CC[C@@H]1C(=O)N1CCn2c(nnc2C(F)(F)F)C1 [Example 45, {(3S,4S)-1-[3-fluoro-7-(trifluoromethyl)quinolin-4-yl]-3-methylpiperidin-4-yl}[3-(trifluoromethyl)-5,6-dihydro[1,2,4]triazolo[4,3-a]pyrazin-7(8H)-yl]methanone]	0.25 nM
C[C@@H]1CN(c2ccnc3cc(C(C)(F)F)ccc23)CC[C@@H]1C(=O)N1CCn2c(nnc2C(F)(F)F)C1 [Example 46, {(3S,4S)-1-[7-(1,1-difluoroethyl)quinolin-4-yl]-3-methylpiperidin-4-yl}[3-(trifluoromethyl)-5,6-dihydro[1,2,4]triazolo[4,3-a]pyrazin-7(8H)-yl]methanone]	1.1 nM
C[C@@H]1CN(c2c(F)cnc3cc(C(C)(F)F)ccc23)CC[C@@H]1C(=O)N1CCn2c(nnc2C(F)(F)F)C1 [Example 47, {(3S,4S)-1-[7-(1,1-difluoroethyl)-3-fluoroquinolin-4-yl]-3-methylpiperidin-4-yl}[3-(trifluoromethyl)-5,6-dihydro[1,2,4]triazolo[4,3-a]pyrazin-7(8H)-yl]methanone]	0.57 nM
C[C@@H]1CN(c2c(F)cnc3cc(Cl)ccc23)CC[C@@H]1C(=O)N1CCn2c(nnc2C(F)(F)F)C1 [Example 48, [(3S,4S)-1-(7-chloro-3-fluoroquinolin-4-yl)-3-methylpiperidin-4-yl][3-(trifluoromethyl)-5,6-dihydro[1,2,4]triazolo[4,3-a]pyrazin-7(8H)-yl]methanone]	1.7 nM
C[C@@H]1CN(c2c(Cl)cnc3cc(C(C)(F)F)ccc23)CC[C@@H]1C(=O)N1CCn2c(nnc2C(F)(F)F)C1 [Example 49, {(3S,4S)-1-[3-chloro-7-(1,1-difluoroethyl)quinolin-4-yl]-3-methylpiperidin-4-yl}[3-(trifluoromethyl)-5,6-dihydro[1,2,4]triazolo[4,3-a]pyrazin-7(8H)-yl]methanone]	0.46 nM
C[C@@H]1CN(c2c(Cl)cnc3cc(C4CC4)ccc23)CC[C@@H]1C(=O)N1CCn2c(nnc2C(F)(F)F)C1 [Example 50, [(3S,4S)-1-(3-chloro-7-cyclopropyl-quinolin-4-yl)-3-methylpiperidin-4-yl][3-(trifluoromethyl)-5,6-dihydro[1,2,4]triazolo[4,3-a]pyrazin-7(8H) - yl]methanone]	0.25 nM
C[C@@H]1CN(c2c(Cl)cnc3cc(OCC4CC4)ccc23)CC[C@@H]1C(=O)N1CCn2c(nnc2C(F)(F)F)C1 [Example 51]	0.22 nM
